Assay results as given in patent US20240199623A1 (ILDONG PHARMACEUTICAL CO., LTD., priority 2020, published 2024).
pEC50: −log10 of the molar value. ≈ marks a conversion by molar mass, not a printed value. Like-named read-outs stand apart in the source and are kept apart here.

Assays:
human wild type-CFTR [1] = molecular target: T1, human wild type-CFTR (Homo sapiens, UniProt P13569); assay: Cell-based YFP assay; parameters: expressed in transfected cells; host or cells: CHO-K1 (Chinese hamster ovary); conditions: CHO-K1 cells expressing human wild type-CFTR and YFP-H148Q/I152L; forskolin 20 μM = 100% activity; read-out: Cell-based YFP Assay (EC50) Concentration Range
Procedure, shortened: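 CHO-K1 cells co-expressing human wild-type CFTR and YFP-H148Q/I152L halide sensor, grown 48 h at 37 °C, then in PBS. YFP quenching by I⁻ influx read at 37 °C after adding 140 mM I⁻ solution, sampled every 0.4 s for 14 s. Triplicates averaged; EC50 fitted.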

[2] = Phosphate-buffered saline (PBS) solubility of compounds; type: physicochemical; conditions: aqueous buffer, thermodynamic from solid, PBS pH 7.5, 0.5 mg/mL, vortexed 90 min, filtered, LC-MS/MS, read-out: Solubility Range
Description: PBS solutions (pH 7.5) were prepared according to the following compositions and stored at 4° C. Test compounds were dissolved in PBS (pH 7.5) at 0.5 mg/mL and vortexed for 90 min. The PBS solution was sequentially filtered through a 0.45, 1.2, […] syringe filter. Concentration of test compounds were determined using LC-MS/MS with appropriate dilution of the samples.

Human recombinant PDE4D2 = molecular target: T2, Human recombinant PDE4D2 (Homo sapiens, UniProt Q08499); assay: Human phosphodiesterase 4 (PDE4) inhibition, PDE4D2; type: biochemical; conditions: read-out: % inhibition range at 10 uM PDE4D2
T2 construct: purchased BPS Bioscience; host or cells: insect Sf9 cells
Description: (§1) […] Human recombinant PDE4A1A, PDE4B 1, PDE4C1 and PDE4D2 are respectively expressed in each host cell (insect Sf9 cells, BPS Bioscience). Preincubation of 10 μM test compounds or vehicle was proceeded with 20 ng/ml PDE4A1A or 4 ng/ml PDE4B 1 or 8 ng/ml PDE4C1 or 5 ng/ml PDE4D2 enzyme in Tris-HCl buffer pH 7.2 for 15 minutes at 25° C. 100 nM fluorescein (FAM) labeled cAMP for another 30 minutes incubation period was added in order to initiate the enzymatic reaction and addition of IMAP binding solution was followed for its termination. Specifically, IMAP complexes with phosphate groups on nucleotide monophosphate generated from cyclic nucleotides through PDE activity. The amount of complex formed is determined by reading spectrofluorimetrical signal at 470 nm/525 nm.

[3] = molecular target: T3, Human recombinant PDE4A1A (Homo sapiens, UniProt P27815); assay: Human phosphodiesterase 4 (PDE4) inhibition, PDE4A1A; type: biochemical; conditions: read-out: % inhibition range at 10 uM PDE4A1A
T3 construct: purchased BPS Bioscience; host or cells: insect Sf9 cells
Description: as §1

[4] = molecular target: T4, Human recombinant PDE4B 1 (Homo sapiens, UniProt Q07343); assay: Human phosphodiesterase 4 (PDE4) inhibition, PDE4B 1; type: biochemical; conditions: read-out: % inhibition range at 10 uM PDE4B1
T4 construct: purchased BPS Bioscience; host or cells: insect Sf9 cells
Description: as §1

human wild type-CFTR [5] = molecular target: T1, human wild type-CFTR; assay: Short-circuit current measurement; type: cell-based; parameters: expressed in transfected cells; conditions: FRT cells expressing human wild type-CFTR; Forskolin 20 μM signal used as 100% activity; read-out: Short-circuit current measurement (EC50) Concentration range
Procedure, shortened: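 Ussing-chamber short-circuit current in FRT cells expressing human wild-type CFTR, grown on Snapwell inserts. Forskolin, test compounds and CFTRinh-172 added to both apical and basolateral baths; apical membrane current and Isc sampled at 4 Hz.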

C57BL/6 female mice = assay: Scopolamine induced tear volume reduction model; type: in vivo, mouse; conditions: scopolamine-injected mice, ophthalmic solution topically on both eyes 3 times a day, phenol red thread; average if evaluated twice
Description: Seven-week old C57BL/6 female mice were used.
Scopolamine hydrobromide was purchased from Sigma Aldrich (Cat No. S0929), dissolved in saline, and sterilized prior to use.
Zone-Quick phenol red thread was obtained from Menicon.
The test compounds used in this experiment were dissolved in PBS containing 1% of surfactant.
Scopolamine (0.2 ml of 2.5 mg/mL solution) was injected subcutaneously 3 times a day to induce a decrease in the tear volume in the mouse. At the same time, the ophthalmic solution of test compounds or vehicle were topically administered onto both eyes 3 times a day. Tear volume was measured by phenol red thread before dosing (basal level) and 1 hour after the last administration of scopolamine and ophthalmic solution. The results were obtained by measuring the length of the phenol red thread turning red by tears. The schedule of study is expressed as FIG. 1.
If the test compound was evaluated twice, the average value was used.

Human recombinant PDE4C1 = molecular target: T5, Human recombinant PDE4C1 (Homo sapiens, UniProt Q08493); assay: Human phosphodiesterase 4 (PDE4) inhibition, PDE4C1; type: biochemical; conditions: read-out: % inhibition range at 10 uM PDE4C1
T5 construct: purchased BPS Bioscience; host or cells: insect Sf9 cells
Description: as §1

T4 sequence (Q07343 whole entry): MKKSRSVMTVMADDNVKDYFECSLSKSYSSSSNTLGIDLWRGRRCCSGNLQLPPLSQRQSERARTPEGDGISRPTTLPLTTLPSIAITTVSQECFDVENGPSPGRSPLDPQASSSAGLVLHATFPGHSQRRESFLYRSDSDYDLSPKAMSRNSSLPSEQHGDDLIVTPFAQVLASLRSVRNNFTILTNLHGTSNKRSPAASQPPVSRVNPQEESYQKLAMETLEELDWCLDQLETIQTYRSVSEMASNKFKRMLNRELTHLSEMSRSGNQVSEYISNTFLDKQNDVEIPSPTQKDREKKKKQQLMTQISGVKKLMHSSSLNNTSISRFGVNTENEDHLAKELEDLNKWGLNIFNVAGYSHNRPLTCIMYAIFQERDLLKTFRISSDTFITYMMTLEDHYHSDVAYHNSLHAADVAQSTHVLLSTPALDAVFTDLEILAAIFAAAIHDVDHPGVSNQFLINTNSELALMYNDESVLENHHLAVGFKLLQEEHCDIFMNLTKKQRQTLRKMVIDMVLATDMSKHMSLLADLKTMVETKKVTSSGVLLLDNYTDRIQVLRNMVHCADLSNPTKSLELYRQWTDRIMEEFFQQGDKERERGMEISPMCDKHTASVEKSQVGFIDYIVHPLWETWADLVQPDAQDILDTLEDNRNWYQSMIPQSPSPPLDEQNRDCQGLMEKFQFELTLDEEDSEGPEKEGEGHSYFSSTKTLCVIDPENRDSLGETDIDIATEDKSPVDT
T3 sequence (P27815 1-647 isoform P27815-4): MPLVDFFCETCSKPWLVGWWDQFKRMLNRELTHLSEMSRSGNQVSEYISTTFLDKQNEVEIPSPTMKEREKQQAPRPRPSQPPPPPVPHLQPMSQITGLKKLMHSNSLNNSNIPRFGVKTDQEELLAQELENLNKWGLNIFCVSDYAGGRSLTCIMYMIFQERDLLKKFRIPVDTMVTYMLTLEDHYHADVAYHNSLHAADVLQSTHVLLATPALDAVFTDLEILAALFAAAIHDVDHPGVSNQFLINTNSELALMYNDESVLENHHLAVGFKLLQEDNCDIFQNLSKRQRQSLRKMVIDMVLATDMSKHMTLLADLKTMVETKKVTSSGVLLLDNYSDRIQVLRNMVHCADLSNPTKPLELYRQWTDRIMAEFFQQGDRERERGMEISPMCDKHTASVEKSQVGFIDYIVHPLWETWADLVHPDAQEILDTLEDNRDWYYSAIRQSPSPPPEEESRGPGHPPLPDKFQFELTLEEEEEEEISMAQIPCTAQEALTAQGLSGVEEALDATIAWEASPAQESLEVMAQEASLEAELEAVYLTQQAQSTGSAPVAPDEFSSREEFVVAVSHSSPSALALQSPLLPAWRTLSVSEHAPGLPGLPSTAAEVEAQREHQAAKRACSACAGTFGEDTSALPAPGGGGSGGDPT
T2 sequence (Q08499 303-809 limits assumed): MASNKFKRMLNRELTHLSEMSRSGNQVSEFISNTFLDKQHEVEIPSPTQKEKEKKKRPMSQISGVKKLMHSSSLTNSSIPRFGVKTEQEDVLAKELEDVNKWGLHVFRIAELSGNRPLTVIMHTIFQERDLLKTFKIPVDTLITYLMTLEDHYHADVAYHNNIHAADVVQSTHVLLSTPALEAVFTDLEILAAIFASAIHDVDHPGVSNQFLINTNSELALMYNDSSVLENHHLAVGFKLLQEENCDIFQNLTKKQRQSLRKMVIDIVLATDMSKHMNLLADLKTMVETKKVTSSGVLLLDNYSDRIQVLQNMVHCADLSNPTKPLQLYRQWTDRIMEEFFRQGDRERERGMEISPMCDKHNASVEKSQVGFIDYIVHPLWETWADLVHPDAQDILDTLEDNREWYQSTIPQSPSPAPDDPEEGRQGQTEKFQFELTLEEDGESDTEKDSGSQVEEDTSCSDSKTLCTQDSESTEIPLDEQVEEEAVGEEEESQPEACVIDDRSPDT
T1 sequence (P13569 whole entry): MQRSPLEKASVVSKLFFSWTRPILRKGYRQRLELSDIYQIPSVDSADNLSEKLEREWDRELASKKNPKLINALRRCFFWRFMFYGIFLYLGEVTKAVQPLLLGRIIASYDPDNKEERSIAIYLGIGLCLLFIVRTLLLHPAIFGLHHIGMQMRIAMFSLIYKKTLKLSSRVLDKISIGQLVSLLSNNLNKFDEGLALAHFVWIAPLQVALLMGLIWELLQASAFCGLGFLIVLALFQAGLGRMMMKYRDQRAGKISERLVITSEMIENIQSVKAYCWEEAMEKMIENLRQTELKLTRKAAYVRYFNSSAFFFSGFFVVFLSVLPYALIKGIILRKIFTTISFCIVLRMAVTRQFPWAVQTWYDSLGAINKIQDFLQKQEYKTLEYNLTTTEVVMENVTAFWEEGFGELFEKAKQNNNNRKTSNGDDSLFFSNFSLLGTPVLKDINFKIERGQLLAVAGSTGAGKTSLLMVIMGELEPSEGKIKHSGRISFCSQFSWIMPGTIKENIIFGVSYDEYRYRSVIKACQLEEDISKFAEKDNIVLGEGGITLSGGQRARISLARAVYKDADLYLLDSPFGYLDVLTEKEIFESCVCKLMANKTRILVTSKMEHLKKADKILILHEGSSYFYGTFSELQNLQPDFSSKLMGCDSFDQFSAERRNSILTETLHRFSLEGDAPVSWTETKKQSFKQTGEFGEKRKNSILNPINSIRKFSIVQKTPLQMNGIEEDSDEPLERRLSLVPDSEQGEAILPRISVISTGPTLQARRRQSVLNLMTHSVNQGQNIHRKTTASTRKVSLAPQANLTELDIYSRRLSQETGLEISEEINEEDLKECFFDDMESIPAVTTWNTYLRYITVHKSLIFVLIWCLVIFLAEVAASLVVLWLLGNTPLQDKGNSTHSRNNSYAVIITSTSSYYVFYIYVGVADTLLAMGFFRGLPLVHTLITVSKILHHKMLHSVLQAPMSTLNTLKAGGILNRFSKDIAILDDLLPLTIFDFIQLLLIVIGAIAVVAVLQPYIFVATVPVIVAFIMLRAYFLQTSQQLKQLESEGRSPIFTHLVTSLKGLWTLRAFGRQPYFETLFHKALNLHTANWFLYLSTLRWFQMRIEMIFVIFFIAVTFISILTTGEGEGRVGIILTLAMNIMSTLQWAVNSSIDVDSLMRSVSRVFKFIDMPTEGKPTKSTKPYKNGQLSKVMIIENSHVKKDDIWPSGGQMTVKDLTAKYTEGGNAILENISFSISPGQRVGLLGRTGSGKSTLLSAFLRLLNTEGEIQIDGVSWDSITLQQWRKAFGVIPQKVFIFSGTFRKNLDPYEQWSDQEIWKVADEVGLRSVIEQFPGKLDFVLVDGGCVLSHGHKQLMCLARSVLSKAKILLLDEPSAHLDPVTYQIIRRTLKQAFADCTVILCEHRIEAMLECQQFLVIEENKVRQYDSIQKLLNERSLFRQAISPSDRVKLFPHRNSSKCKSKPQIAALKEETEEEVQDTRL
T5 sequence (Q08493 whole entry): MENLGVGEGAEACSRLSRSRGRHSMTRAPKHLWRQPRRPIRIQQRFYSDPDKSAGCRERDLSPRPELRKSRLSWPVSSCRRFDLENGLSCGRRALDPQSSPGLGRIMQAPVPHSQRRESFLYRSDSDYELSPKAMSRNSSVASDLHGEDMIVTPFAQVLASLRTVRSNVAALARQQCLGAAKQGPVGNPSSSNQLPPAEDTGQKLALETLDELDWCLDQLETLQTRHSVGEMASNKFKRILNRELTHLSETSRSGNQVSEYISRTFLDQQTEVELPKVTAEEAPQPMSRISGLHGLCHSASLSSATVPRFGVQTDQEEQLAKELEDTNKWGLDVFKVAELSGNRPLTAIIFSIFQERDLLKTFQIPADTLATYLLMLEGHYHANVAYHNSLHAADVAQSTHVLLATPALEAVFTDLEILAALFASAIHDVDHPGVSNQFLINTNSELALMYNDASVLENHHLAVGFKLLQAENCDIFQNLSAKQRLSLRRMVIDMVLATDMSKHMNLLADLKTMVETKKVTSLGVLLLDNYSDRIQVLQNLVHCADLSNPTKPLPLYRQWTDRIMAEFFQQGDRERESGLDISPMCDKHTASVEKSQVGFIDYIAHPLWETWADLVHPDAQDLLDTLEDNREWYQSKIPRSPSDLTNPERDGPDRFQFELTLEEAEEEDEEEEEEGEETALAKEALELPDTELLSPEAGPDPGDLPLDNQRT

Compound	pEC50 (human wild type-CFTR [1])	solubility at 90 min [2] [µg/mL]	inhibition at 10 µM (Human recombinant PDE4D2; 10 uM test compound) [%]	inhibition at 10 µM ([3]; 10 uM test compound) [%]	inhibition at 10 µM ([4]; 10 uM test compound) [%]	pEC50 (human wild type-CFTR [5])	Ratio of tear volume (test compound to vehicle) (C57BL/6 female mice)	inhibition at 10 µM (Human recombinant PDE4C1; 10 uM test compound) [%]	inhibition at 10 µM (Human recombinant PDE4D2) [%]	inhibition at 10 µM [3] [%]	inhibition at 10 µM [4] [%]	inhibition at 10 µM (Human recombinant PDE4C1) [%]
COc1ccc(-c2ccnc3cc(C(=O)Nc4ccc(C(=O)N5CCN(C)CC5)cc4)nn23)cc1OC [Compound 97, 7-(3,4-dimethoxyphenyl)-N-(4-(4-methylpiperazine-1-carbonyl)phenyl)pyrazolo[1,5-a]pyrimidine-2-carboxamide]	5.70 to 6.70	0.1 to 10 (≈ 0.2 to 20 µM)	> 80	> 80	> 80	5.70 to 6.70	0.95	> 80	–	–	–	–
COc1ccc(-c2ccnc3cc(C(=O)Nc4ccc(N)cc4)nn23)cc1OC [Compound 257, N-(4-aminophenyl)-7-(3,4-dimethoxyphenyl)pyrazolo [1,5-a]pyrimidine-2-carboxamide]	> 6.70	< 0.1	> 80	> 80	> 80	5.70 to 6.70	1.16	> 80	–	–	–	–
COc1ccc(-c2ccnc3cc(C(=O)NC45CCC(C(=O)N6CCN(C)CC6)(CC4)CC5)nn23)cc1OC [Compound 151, 7-(3,4-dimethoxyphenyl)-N-(4-(4-methylpiperazine-1-carbonyl)bicyclo[2.2.2]octan-1-yl)pyrazolo[1,5-a]pyrimidine-2-carboxamide]	> 6.70	> 10	> 80	> 80	> 80	5.70 to 6.70	1.40	> 80	–	–	–	–
COC(=O)c1ccc(NC(=O)c2cc3nccc(-c4ccc(OC)c(F)c4)n3n2)cc1 [Compound 33, methyl 4-(7-(3-fluoro-4-methoxyphenyl)pyrazolo [1,5-a]pyrimidine-2-carboxamido)benzoate]	5.70 to 6.70	< 0.1	50 to 80	50 to 80	50 to 80	≤ 5.70	–	< 50	–	–	–	–
COC(=O)c1ccc(NC(=O)c2cc3nccc(-c4ccc(OC)c(OC)c4)n3n2)cc1 [Compound 11, methyl 4-(7-(3,4-dimethoxyphenyl)pyrazolo[1,5-a]pyrimidine-2-carboxamido)benzoate]	> 6.70	< 0.1	–	–	–	> 6.70	–	–	> 80	> 80	> 80	> 80
COC(=O)C12CCC(NC(=O)c3cc4nccc(-c5ccc(OC)c(OC)c5)n4n3)(CC1)CC2 [Compound 144, methyl 4-(7-(3,4-dimethoxyphenyl)pyrazolo[1,5-a]pyrimidine-2-carboxamido)bicyclo[2.2.2]octane-1-carboxylate]	> 6.70	< 0.1	> 80	> 80	> 80	> 6.70	1.18	> 80	–	–	–	–
COC(=O)c1ccc(CNC(=O)c2cc3nccc(-c4ccc(OC)c(OC)c4)n3n2)cc1 [Compound 12, methyl 4-((7-(3,4-dimethoxyphenyl)pyrazolo [1,5-a]pyrimidine-2-carboxamido)methyl) benzoate]	5.70 to 6.70	< 0.1	50 to 80	> 80	50 to 80	≤ 5.70	–	50 to 80	–	–	–	–
COc1ccc(-c2ccnc3cc(C(=O)Nc4ccc(C(=O)N[C@H](C(=O)N5CCOCC5)C(C)C)cc4)nn23)cc1OC [Compound 147, (S)-7-(3,4-dimethoxyphenyl)-N-(4-((3-methyl-1-morpholino-1-oxobutan-2-yl)carbamoyl)phenyl) pyrazolo[1,5-a]pyrimidine-2-carboxamide]	> 6.70	< 0.1	> 80	> 80	> 80	> 6.70	1.03	> 80	–	–	–	–
COc1ccc(-c2ccnc3cc(C(=O)Nc4ccc(N5CCOCC5)cn4)nn23)cc1OC [Compound 205, 7-(3,4-dimethoxyphenyl)-N-(5-morpholinopyridin-2-yl)pyrazolo[1,5-a]pyrimidine-2-carboxamide]	> 6.70	–	> 80	> 80	> 80	> 6.70	1.12	> 80	–	–	–	–
COc1ccc(-c2ccnc3cc(C(=O)Nc4ccc(O)cc4)nn23)cc1OC [Compound 15, 7-(3,4-dimethoxyphenyl)-N-(4-hydroxyphenyl)pyrazolo[1,5-a]pyrimidine-2-carboxamide]	> 6.70	< 0.1	> 80	> 80	> 80	> 6.70	1.29	> 80	–	–	–	–
